Measured values from patent publication US7300946B2, “N-(substituted arylmethyl)-4-(disubstituted methyl) piperidines and pyridines” (Bayer CropScience AG, priority 2002, dated 2007).

Test system: tobacco budworm (Heliothis virescens [Fabricius])
Assay: surface-treated diet test against the tobacco budworm
Assay type: in vivo
Conditions: tobacco budworm second instar larvae, 0.25 millimoles of candidate insecticide on the surface of the diet, five-day exposure; for Percent Mortality: compared to total number of insects infested; for Percent Growth Inhibition: inhibition of insect weight relative to untreated controls
Summary of the method: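 Wheat germ artificial diet surface-treated with 40 µL of 50 mM DMSO stock diluted 1:7 in 1:1 water/acetone (0.25 millimolar on diet), or sub-multiples for rate tests. One second-instar larva per well, 25° C, 60% RH, 5 days; percent weight inhibition vs DMSO controls and percent mortality.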

Row | SMILES | Percent Mortality [%] | Percent Growth Inhibition [%] | Percent Mortality (surface-treated diet) [%] | Percent Growth Inhibition (surface-treated diet) [%]
1 | O=C(Nc1cc(F)cc(F)c1)OC(c1ccc(OC(F)(F)F)cc1)C1CCN(Cc2ccc(Oc3ncccn3)cc2)CC1 (stereo not shown) [Compound 735] | 100 | 100 |  | 
2 | O=C(Nc1cccc(F)c1)OC(c1ccc(OC(F)(F)F)cc1)C1CCN(Cc2ccc(Oc3ncccn3)cc2)CC1 (stereo not shown) [Compound 734] | 100 | 100 |  | 
3 | O=C(Nc1cc(F)cc(F)c1)OC(c1ccc(F)cc1)C1CCN(Cc2ccc(Oc3ncccn3)cc2)CC1 (stereo not shown) [Compound 717] | 100 | 100 |  | 
4 | N#Cc1cccnc1Oc1ccc(CN2CCC(C(OC(=O)Nc3ccc(Cl)cc3)c3ccc(C(F)(F)F)cc3)CC2)cc1 (stereo not shown) [Compound 670] |  |  | 100 | 100
5 | O=C(Nc1ccc(Cl)cc1)OC(c1ccc(Cl)cc1Cl)C1CCN(Cc2ccc(Oc3ncccn3)cc2)CC1 (stereo not shown) [Compound 718] | 100 | 100 |  | 
6 | O=C(NS(=O)(=O)c1ccc(Cl)cc1)OC(c1ccc(C(F)(F)F)cc1)C1CCN(Cc2ccc(Oc3ccccn3)cc2)CC1 (stereo not shown) [Compound 668] |  |  | 0 | 25
7 | CCCOc1ccc(CN2CCC(C(OC(=O)Nc3ccc(C(F)(F)F)cc3)c3ccc(Cl)cc3)CC2)cc1 (stereo not shown) [Compound 473] |  |  | 100 | 100
8 | O=C(Nc1cc(F)cc(F)c1)OC(c1ccc(C(F)(F)F)cc1)C1CCN(Cc2ccc(Oc3cccc[n+]3[O-])cc2)CC1 (stereo not shown) [Compound 682] |  |  | 100 | 100
9 | CCCOc1ccc(CN2CCC(C(OC(=O)Nc3ccc(Cl)cc3)c3cccc(C(F)(F)F)c3)CC2)cc1 (stereo not shown) [Compound 485] |  |  | 100 | 100
10 | Cn1nnc(-c2ccc(CN3CCC(C(NC(=O)c4ccc(OC(F)(F)F)cc4)c4ccc(OC(F)(F)F)cc4)CC3)cc2)n1 (stereo not shown) [Compound 332] |  |  | 100 | 100
11 | O=C(Nc1ccc(Cl)c(Cl)c1)OC(c1ccc(C(F)(F)F)cc1)C1CCN(Cc2ccc(Oc3ccccn3)cc2)CC1 (stereo not shown) [Compound 230] |  |  | 100 | 100
12 | CC(C)OC(=O)Nc1ccc(CN2CCC(C(OC(=O)Nc3cc(F)cc(F)c3)c3ccc(OC(F)(F)F)cc3)CC2)cc1 (stereo not shown) [Compound 515] |  |  | 100 | 100
13 | CC(C)N(C)C(=O)OC(c1ccc(C(F)(F)F)cc1)C1CCN(Cc2ccc(Oc3ccccn3)cc2)CC1 (stereo not shown) [Compound 778] | 0 | 100 |  | 
14 | CCON=Cc1ccc(CN2CCC(C(OC(=O)Nc3ccc(Cl)cc3)c3ccc(OC(F)(F)F)cc3)CC2)cc1 (stereo not shown) [Compound 537] |  |  | 100 | 100
15 | CC(C)NC(=O)OC(c1ccc(C(F)(F)F)cc1)C1CCN(Cc2ccc(Oc3ccccn3)cc2)CC1 (stereo not shown) [Compound 776] | 100 | 100 |  | 
16 | CCn1nnc(-c2ccc(CN3CCC(=C(c4ccc(F)cc4)c4ccc(C(F)(F)F)cc4)CC3)cc2)n1 [Compound 81] |  |  | 100 | 100
17 | Cn1nnc(-c2ccc(CN3CCC(C(NC(=O)c4cccc(F)c4)c4ccc(OC(F)(F)F)cc4)CC3)cc2)n1 (stereo not shown) [Compound 327] |  |  | 0 | 99
18 | CCON=Cc1ccc(CN2CCC(C(OC(=O)Nc3c(F)cccc3F)c3ccc(C(F)(F)F)cc3)CC2)cc1 (stereo not shown) [Compound 199] |  |  | 100 | 100
19 | Cn1nnc(-c2ccc(CN3CCC(C(NC(=O)c4ccccc4F)c4ccc(OC(F)(F)F)cc4)CC3)cc2)n1 (stereo not shown) [Compound 326] |  |  | 0 | 93
20 | CCn1nnc(-c2ccc(CN3CCC(C(OC(=O)Nc4ccc(F)c(F)c4)c4ccc(-c5ccccc5)cc4)CC3)cc2)n1 (stereo not shown) [Compound 613] |  |  | 83 | 100
21 | COC(=O)Nc1ccc(CN2CCC(C(OC(=O)Nc3cc(F)cc(F)c3)c3ccc(C(F)(F)F)cc3)CC2)cc1 (stereo not shown) [Compound 498] |  |  | 100 | 100
22 | Cn1nnc(-c2ccc(CN3CCC(C(Oc4ccc(C(F)(F)F)cn4)c4ccc(OC(F)(F)F)cc4)CC3)cc2)n1 (stereo not shown) [Compound 434, 2-[(1-{[4-(2-methyl(1,2,3,4-tetraazol-5-yl))phenyl]methyl}(4-piperidyl))[4-(trifluoromethoxy)phenyl]methoxy]-5-(trifluoromethyl)pyridine] |  |  | 100 | 100
23 | O=C(Nc1ccc(F)cc1)OC(c1ccc(Cl)cc1)C1CCN(Cc2ccc(Oc3ccccn3)cc2)CC1 (stereo not shown) [Compound 630] |  |  | 100 | 100
24 | CCn1nnc(-c2ccc(CN3CCC(C(OC(=O)Nc4ccc(Cl)c(Cl)c4)c4ccc(Cl)c(Cl)c4)CC3)cc2)n1 (stereo not shown) [Compound 573] |  |  | 100 | 100

Row | SMILES | Percent Mortality [%] | Percent Growth Inhibition [%] | Percent Mortality (surface-treated diet) [%] | Percent Growth Inhibition (surface-treated diet) [%]
25 | Cn1nnc(-c2ccc(C[N+]3([O-])CCC(C(OC(=O)Nc4ccc(F)cc4)c4ccc(OC(F)(F)F)cc4)CC3)cc2)n1 (stereo not shown) [Compound 400] |  |  | 100 | 100
26 | COc1ccc(NC(=O)OC(c2ccc(C(F)(F)F)cc2)C2CCN(Cc3ccc(Oc4ccccn4)cc3)CC2)cc1Cl (stereo not shown) [Compound 699] |  |  | 100 | 100
27 | [O-][N+]1(Cc2ccc(Oc3ncccn3)cc2)CCC(=C(c2ccc(Cl)cc2)c2ccc(Cl)cc2)CC1 (stereo not shown) [Compound 844] | 100 | 100 |  | 
28 | FC(F)(F)c1ccc(C(OC(=S)Nc2cccc(C(F)(F)F)c2)C2CCN(Cc3ccc(Oc4ccccn4)cc3)CC2)cc1 (stereo not shown) [Compound 692] |  |  | 100 | 100
29 | O=C(Nc1cc(C(F)(F)F)cc(C(F)(F)F)c1)OC(c1ccc(C(F)(F)F)cc1)C1CCN(Cc2ccc(Oc3ccccn3)cc2)CC1 (stereo not shown) [Compound 248] |  |  | 100 | 100
30 | CCCOC(=O)Nc1ccc(C[N+]2([O-])CCC(=C(c3ccc(C(F)(F)F)cc3)c3ccc(C(F)(F)F)cc3)CC2)cc1 (stereo not shown) [Compound 102] |  |  | 100 | 100
31 | [O-][N+]1(Cc2ccc(Oc3ccc(Cl)cn3)cc2)CCC(=C(c2ccc(C(F)(F)F)cc2)c2ccc(C(F)(F)F)cc2)CC1 (stereo not shown) [Compound 107] |  |  | 100 | 100
32 | O=C(Nc1cc(F)cc(F)c1)OC(c1ccc(C(F)(F)F)cc1)C1CCN(Cc2ccc(Oc3ccccc3)cc2)CC1 (stereo not shown) [Compound 546] |  |  | 100 | 100
33 | Cc1cccc(CNC(=O)OC(c2ccc(C(F)(F)F)cc2)C2CCN(Cc3ccc(Oc4ccccn4)cc3)CC2)c1 (stereo not shown) [Compound 694] |  |  | 50 | 100
34 | O=C(Nc1cc(F)cc(F)c1)OC(c1ccc(OC(F)(F)F)cc1)C1CCN(Cc2ccc(Cl)cc2)CC1 (stereo not shown) [Compound 460] |  |  | 0 | 100
35 | O=C(Nc1ccc(F)cc1)Oc1ccc(CN2CCC(C(OC(=O)Nc3ccc(F)cc3)c3ccc(OC(F)(F)F)cc3)CC2)cc1 (stereo not shown) [Compound 181] |  |  | 100 | 100
36 | CNC(=O)Oc1ccc(C[N+]2([O-])CCC(=C(c3ccc(Cl)cc3)c3ccc(Cl)cc3)CC2)cc1 (stereo not shown) [Compound 827] | 100 | 100 |  | 
37 | FC(F)(F)c1ccc(C(=C2CCN(Cc3ccc(Oc4ncccn4)cc3)CC2)c2ccc(Cl)c(Cl)c2)cc1 [Compound 818] | 100 | 100 |  | 
38 | N#Cc1cccnc1Oc1ccc(CN2CCC(C(OC(=O)Nc3ccc(Cl)cc3)c3ccc(OC(F)(F)F)cc3)CC2)cc1 (stereo not shown) [Compound 707] | 100 | 100 |  | 
39 | O=C(Nc1ccccc1Cl)OC(c1ccc(C(F)(F)F)cc1)C1CCN(Cc2ccc(Oc3ccccn3)cc2)CC1 (stereo not shown) [Compound 662] |  |  | 100 | 100
40 | CCn1nnc(-c2ccc(CN3CCC(C(OC(=O)Nc4cc(F)cc(C(F)(F)F)c4)c4ccccc4)CC3)cc2)n1 (stereo not shown) [Compound 566] |  |  | 100 | 100
41 | O=C(Nc1cccc(C(F)(F)F)c1)OC(c1ccc(Cl)c(Cl)c1)C1CCN(Cc2ccc(Oc3ncccn3)cc2)CC1 (stereo not shown) [Compound 724] | 100 | 100 |  | 
42 | O=C(Nc1ccc(Cl)cc1)OC(c1ccc(C(F)(F)F)cc1)C1CC[N+]([O-])(Cc2ccc(Oc3ccc(Cl)nn3)cc2)CC1 (stereo not shown) [Compound 767] | 100 | 100 |  | 
43 | O=C(Nc1ccc(OC(F)F)cc1)OC(c1ccc(C(F)(F)F)cc1)C1CCN(Cc2ccc(Oc3ccccn3)cc2)CC1 (stereo not shown) [Compound 701] | 100 | 100 |  | 
44 | CCOC(=O)N(C)c1ccc(CN2CCC(=C(c3ccc(C(F)(F)F)cc3)c3ccc(C(F)(F)F)cc3)CC2)cc1 [Compound 56] |  |  | 100 | 100
45 | Cn1nnc(-c2ccc(CN3CCC(C(Oc4ccc(Cl)nn4)c4ccc(OC(F)(F)F)cc4)CC3)cc2)n1 (stereo not shown) [Compound 453] |  |  | 83 | 100
46 | CCON=Cc1ccc(CN2CCC(C(OC(=O)N(C)c3ccccc3)c3ccc(C(F)(F)F)cc3)CC2)cc1 (stereo not shown) [Compound 536] |  |  | 100 | 100
47 | O=C(Nc1ccc(SC(F)(F)F)cc1)OC(c1ccc(C(F)(F)F)cc1)C1CCN(Cc2ccc(Oc3ccccn3)cc2)CC1 (stereo not shown) [Compound 703] | 100 | 100 |  | 
